MIC data for one molecule are collected here from patent EP3087981A1, “HYGROPHORON B12 FOR USE IN THE TREATMENT OF A MYCOSIS” (Leibniz-Institut für Pflanzenbiochemie (IPB), priority 2015, dated 2016).

In brackets after ≈: the same amount, converted by molar mass.

For this assay, the system named is Malassezia pachydermatis Isolat CBS 1879. Description: Dilution assay in 96-well microtiter plates, minimal inhibitory concentration (MHK). In kind it is cell-based. Particulars: CBS1879, RPMI 1640 Medium, 2 bis 4 Tage bei 37 °C, visual evaluation, read-out: minimale Hemmkonzentration (MHK). The text has this: Einer besonders bevorzugten Ausführungsform der Erfindung entsprechend wird Hygrophoron B^12 oder dessen Enantiomer, Epimere oder Diastereomere zur Verwendung bei der Behandlung einer Mykose eingesetzt, die durch Malassezia pachydermatis ausgelöst wird. Die Evaluierung der biologischen Eigenschaften des erfindungsgemäß verwendeten Hygrophorons B^12 ergab, dass Hygrophoron B^12 stark antimykotische Eigenschaften aufweist. Insbesondere weist Hygrophoron B^12 starke Aktivität gegen Malassezia pachydermatis auf. Figur 1 zeigt eine überraschend starke in vitro Aktivität des erfindungsgemäß verwendeten Hygrophorons B^12 gegen Malassezia pachydermatis, wobei die Aktivität mit dem Arzneistoff Terbinafin vergleichbar ist. Terbinafin ist ein synthetisches Antimykotikum und seit vielen Jahren das meist verordnete Präparat. In Figur 1 bezeichnet MHK die minimale HemmKonzentration (MHK). Sie ist die niedrigste Konzentration einer Substanz, bei der die Vermehrung von Mikroorganismen mit bloßem Auge nicht wahrgenommen werden kann. Die MHK wird mit einem sogenannten Titerverfahren bestimmt. Dabei wird die Konzentration von einem Wirkstoff (hier Terbinafin und Hygrophoron B^12) bestimmt, der das Wachstum von Malassezia pachydermatis gerade noch hemmt. Die MHK wird in Mikrogramm pro Milliliter (µg/ml) angegeben. […]

Regarding `CCCCCCCCCCCC[C@@H](O)[C@@]1(O)C(=O)C=C[C@@H]1O` [Hygrophoron B^12, (+)-cis-4,5-Dihydroxy-5-(1-hydroxytridecyl)cyclopent-2-enon], the MIC was 0.17 µg/mL (≈ 0.544 µM).
